Data taken from patent publication US8889680B2, “Treatment or prevention of fungal infections with PDK1 inhibitors” (priority 2010, dated 2014).

Assays:
[1] = test system: S. cerevisiae pkh and ypk mutants; assay: Disk diffusion assay, S. cerevisiae mutants; format: cell-based
Procedure: (§1) Plates were incubated at 30° C. for 3 days prior to photography.
(§2) The antifungal activity of protein kinase inhibitors was determined using the Clinical and Laboratory Science Institute microdilution protocol M-27A2. Biofilm antifungal activity was determined using the protocol of Pierce et al. and is reported as MIC50S (Pierce et al., Nat. Protoc. 3:1494-1500 (2008)). Disk diffusion assays were performed as described previously (Roelants et al., Microbiology 150:3289-304 (2004)).
Heterozygous diploid yeast mutants lacking one allele of the gene encoding a putative drug target are frequently hypersensitive to the effects of that drug. This is called drug-induced haploinsufficiency. Similarly, if a drug targets the products of two redundant genes, then deletion of one of those genes in a haploid yeast strain will hypersensitize the strain to that drug. […] Pkh1/2 phosphorylates two other AGC protein kinases involved in yeast cell wall integrity, Ypk1&2.

normal cells = conditions: cited from earlier work
[2] = test system: fluid-phase endocytosis in S. cerevisiae; assay: Lucifer yellow (LY) endocytosis assay; format: cell-based; conditions: sub-lethal KP-372-1, 1 hour pre-treatment, 1 hour time course
Procedure: LY uptake assays were performed as described previously (Dulic et al., Methods Enzymol. 194:697-710 (1991)) using LY obtained from Sigma (St. Louis, Mo.). […] Cells were then exposed to LY and aliquots were removed at 15 minute intervals. Endocytosis was stopped by the addition of sodium azide/succinate and the percentage of cells with vacuolar LY staining was determined by fluorescence microscopy.
Pkh kinases are also important for endocytosis in yeast. […] LY binds to the plasma membrane and is transported to the vacuole (yeast lysosomal homolog) in PKH-dependent fashion.

[3] = test system: C. albicans clinical reference strain SC5314; assay: Adenylate kinase (AK) release assay of yeast cell lysis; format: cell-based, Candida albicans; design: dose or concentration left out as unconfirmed; conditions: extracellular AK activity relative to DMSO-treated cells
Procedure: AK assays were performed according to a recently published protocol (Didone et al., Nat. Protocol. 5:1107-14 (2010)) using the 96-well plate version using the Toxi-Light Assay kit (Lonza; Basel, Switzerland). Luminescence was measured using a SpectraMax plate reader (Molecular Devices; Sunnyvale, Calif.). […] To identify PKIs that disrupt yeast cell wall integrity, a four-part screening strategy as outlined in FIG. 1A was designed. The primary screen in the approach detects molecules that cause yeast cells to lyse, a characteristic phenotype of yeast cell wall damage, by use of an assay that detects the release of adenylate kinase (AK) to the growth medium as a reporter of yeast cell lysis. […] Last, to select PKIs specific for the CWI signaling pathway, the set of hits were tested for their ability to block the activation of a transcriptional reporter of the CWI-signaling pathway. To rapidly survey a sample of well-characterized PKIs, the commercially available InhibitorSelect collection, a library of 80 PKIs with diverse mechanistic and structural characteristics, was utilized. C. albicans clinical reference strain SC5314 was screened against the InhibitorSelect library for molecules that caused a release of AK into the growth medium.

[4] = test system: C. neoformans PKH2-01 and PKH2-02 deletion mutants; assay: Disk diffusion assay, C. neoformans mutants; format: cell-based, Cryptococcus neoformans; conditions: 30° C.
Procedure: as §1, §2

C. albicans = assay: Antifungal susceptibility (microdilution MIC), C. albicans; format: cell-based, Candida albicans
Procedure: as §2
To identify PKIs that disrupt yeast cell wall integrity, a four-part screening strategy as outlined in FIG. 1A was designed. The primary screen in the approach detects molecules that cause yeast cells to lyse, a characteristic phenotype of yeast cell wall damage, by use of an assay that detects the release of adenylate kinase (AK) to the growth medium as a reporter of yeast cell lysis. Previously it was shown that the AK assay in HTS format can detect as few as 500 lysed yeast cells in a sample of 10^5 cells (Didone et al., Nat. Protocol. 5:1107-14 (2010)). PKIs that cause yeast cells lysis (hits) were then re-confirmed by AK dose-response assays and tested for in vitro antifungal activity against the human fungal pathogen C. albicans using standard microdilution susceptibility testing. Last, to select PKIs specific for the CWI signaling pathway, the set of hits were tested for their ability to block the activation of a transcriptional reporter of the CWI-signaling pathway. […]

[5] = test system: eisosomes in S. cerevisiae cells; assay: Eisosome pattern by fluorescence microscopy (Pil1-GFP); format: cell-based; conditions: KP-372-1 (1/2 MIC), within one hour of treatment, versus DMSO
Procedure: Light and fluorescence microscopy was performed using a Nikon ES80 epi-fluorescence microscope equipped with a CoolSnap CCD camera. Images were collected using NIS-Elements Software and processed in PhotoShop. All images were collected with identical exposure settings and equally processed with respect to tone and contrast.
The micrographs of the KP-372-1-treated cells closely match those previously reported (Luo et al., J. Biol. Chem. 283:10433-44 (2008)) and, consequently, support a model in which Pil1 phosphorylation is required for eisosome assembly/stabilization.

C. neoformans = assay: Antifungal susceptibility (microdilution MIC), C. neoformans; format: cell-based, Cryptococcus neoformans
Procedure: as §2
(§3) (FIG. 3A). […] Since the echinocandin class of cell wall-targeted 1,3-β-glucan synthase inhibitors is not active against C. neoformans, this represents one of the few cell wall-targeted molecules with activity against this important pathogen.

human protein kinases = conditions: large panel of human protein kinases; cited from earlier work
[6] = test system: Pkh1/2-dependent phosphorylation of Pil1-GFP; assay: Pil1-GFP phosphorylation immunoblot; format: cell-based, S. cerevisiae; conditions: sub-inhibitory KP-372-1 (1/2 MIC); cells with endogenous Pkh1/2 and cells over-expressing Pkh2; Western blot
Procedure: Cells were harvested at the indicated times and analyzed by Pil1-GFP immunoblotting. Pil1-P corresponds to the Pkh1/2-dependent phosphorylated Pil1 species.
Western blot analysis of Pil1-GFP was performed essentially as described (Luo et al., J. Biol. Chem. 283:10433-44 (2008)). Briefly, Pil1-GFP containing cells were harvested and lysed using the SDS-PAGE sample buffer method. Extracts corresponding to equivalent numbers of cells were fractionated by SDS-PAGE electrophoresis on 7% gels, transferred to nitrocellulose and blocked overnight in 50 mM Tris pH 7.5/150 mM NaCl/0.05% (v/v) Tween-20+5% (w/v) non-fat skim milk. Pil1-GFP was detected using mouse anti-GFP (1:10,000 dilution, Clontech Living Colors) (Clontech; Mountain View, Calif.) as primary and goat anti-mouse antibodies conjugated with horse-radish peroxidase (1:10,000) followed by visualization with ECL-Plus reagents (Amersham; Piscataway, N.J.).
S. cerevisiae strains containing a chromosomally-integrated PIL1-GFP allele were transformed with a vector control or a plasmid expressing PKH2 under the control of a galactose-inducible promoter. […] The phosphorylation status of Pil1-GFP was followed over a 3.5 hour time course by Western blot.

Candida spp. = assay: Antifungal susceptibility (microdilution MIC), Candida spp.; format: cell-based
Procedure: as §2, §3

C. albicans cells = assay: Propidium iodide uptake; format: cell-based, Candida albicans; conditions: KP-372-1 at MIC, 2 hours
Procedure: Bars indicate mean fold change in Miller units of β-galactosidase activity relative to logarithmic phase cells without calcofluor or PKI. Error bars indicate standard deviation of three independent trials performed in triplicate. […] The percentage of cells with PI uptake was determined by fluorescence.
A hallmark phenotype of mutations and drugs that interfere with CWI signaling is that their effects can be suppressed by the addition of osmotic support such as 1M soribitol to the culture medium. By equalizing the osmotic gradient across the plasma membrane, cell integrity is less dependent upon an intact cell wall.

[7] = test system: leukemic and glioblastoma cells; conditions: cited from earlier work

Structure (SMILES): O=C1c2ccccc2-c2nc3nnnn3nc21.O=C1c2ccccc2-c2nn3nnnc3nc21 [KP-372-1]
- zone of inhibition versus wild type ([1]; S. cerevisiae pkh2D mutant, compared with wild type or pkh1D): larger zone of inhibition
- sensitivity versus wild type ([1]; S. cerevisiae ypk1D and ypk2D mutants): as sensitive to KP-372-1 as wild type
- cytotoxicity toward normal cells (normal cells): without significant cytotoxicity
- Lucifer yellow uptake (vacuolar localization) [2]: uptake is inhibited at early time points
- Fold increase in AK release [3]: 4 Fold
- sensitivity versus wild type ([4]; C. neoformans PKH2-01 mutant): slightly more sensitive
- sensitivity versus wild type ([4]; C. neoformans PKH2-02 mutant): significantly more sensitive
- antifungal activity (in words) (C. albicans; C. albicans): highly active
- MIC (C. albicans; C. albicans growth assay, Table 1): 3 µg/mL
- number of peripheral eisosomes [5]: dramatically decreased
- antifungal activity (in words) (C. neoformans): highly active
- selectivity for a limited number of human kinases (human protein kinases): at least 10 fold
- phosphorylation of Pil1-GFP [6]: rapidly blocked
- MIC (Candida spp.; Candida spp., FIG. 7 legend): 3 to 25 µg/mL
- antifungal activity (in words) (Candida spp.; other Candida spp. compared with C. albicans and C. glabrata): less so
- cells stained by propidium iodide relative to YPD (C. albicans cells; 1M sorbitol-supplemented YPD): five-fold fewer cells were stained
- percentage of cells stained by propidium iodide (C. albicans cells; 37° C., YPD): 36%
- activity against leukemic and glioblastoma cells [7]: potent activity
